Results on 1 compound are retold here after US20160095925A1 (CADILA HEALTHCARE LIMITED, priority 2014, published 2016).

For data set [1] the following is noted: formation of RGU increased in acidic and basic conditions; cited from earlier work.
The conditions of data set [2]: cited from earlier work.
The nature of data set [3]: Analytical results of Azacitidine (API), untreated and gamma radiated: description, related substances. It counts as physicochemical.

Molecules are shown by their SMILES. Where two headings read alike, the source gives them in different places.

Take `Nc1ncn([C@@H]2O[C@H](CO)[C@@H](O)[C@H]2O)c(=O)n1` [Azacitidine, 4-amino-1-β-D-ribofuranosyl-1,3,5-triazin-2(1H)-one]: the “Optimal pH for stable formulation” value in data set [1] was 6-7. The Solubility result is “sparingly soluble” in data set [2] (5% Tween 80 in water); “sparingly soluble” in data set [2] (5% dextrose in water); “sparingly soluble” in data set [2] (N-methyl-2-pyrrolidone); “insoluble” in data set [2] (acetone); “soluble” in data set [2] (dimethylsulfoxide (DMSO)); “slightly soluble” in data set [2] (ethanol/water (50/50)). For the same compound, the Solubility entry is given as “insoluble” in data set [2] (ethanol); “insoluble” in data set [2] (methyl ethyl ketone); “sparingly soluble” in data set [2] (normal saline); “slightly soluble” in data set [2] (polyethylene glycol); “slightly soluble” in data set [2] (propylene glycol); “sparingly soluble” in data set [2] (water saturated octanol). Moreover, the Solubility result in data set [2] (water) was “sparingly soluble”. Also, the Description result in data set [3] (gamma radiated) and in data set [3] (untreated) was “White to off” throughout. Further, the “Related Substances: Single max. impurity” value came to 0.05% in data set [3] (gamma radiated) and 0.04% in data set [3] (untreated). The “Related Substances: Total impurities” value in data set [3] (gamma radiated) is 0.24%; in data set [3] (untreated), 0.19%.
